Results published in ChEMBL document CHEMBL5727878, “Triazole furan compounds as agonists of the APJ receptor” (2020).

Target: T1, Apelin receptor (Homo sapiens, UniProt P35414)
T1 sequence (P35414 whole entry): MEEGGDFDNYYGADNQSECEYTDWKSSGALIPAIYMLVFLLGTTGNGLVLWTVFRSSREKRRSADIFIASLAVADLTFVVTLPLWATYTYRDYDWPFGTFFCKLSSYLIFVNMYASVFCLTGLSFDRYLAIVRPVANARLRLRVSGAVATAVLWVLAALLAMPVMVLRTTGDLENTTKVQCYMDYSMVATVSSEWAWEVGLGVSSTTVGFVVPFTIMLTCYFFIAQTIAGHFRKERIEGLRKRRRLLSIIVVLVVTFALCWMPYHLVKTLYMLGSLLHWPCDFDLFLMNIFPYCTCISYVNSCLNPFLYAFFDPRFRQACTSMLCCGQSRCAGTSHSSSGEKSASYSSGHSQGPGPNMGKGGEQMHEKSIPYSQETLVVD
Experiment: GTPγS Binding: The human APJ receptor was cloned by polymerase chain reaction and the gene encoding the receptor was subcloned in pFLAG-CMV-3 expression vector (Sigma, Saint Louis, Mo. USA) in-house at Amgen. A GTPγS binding assay was performed on membranes prepared from CHO cells stably expressing human APJ receptor. The optimum experimental conditions for the concentrations of GDP, MgCl2, and NaCl in the assay buffer were initially determined. The assay was performed in assay buffer [20 mM HEPES, pH 7.5, 5 mM MgCl2, and 0.1% (w/v) BSA with 200 mM NaCl, 3 μM GDP] and membranes expressing human APJ receptor/well along with WGA PS beads. The reaction was initiated by addition of 0.2 nM [35S]GTPγS in the absence or presence of various ligands and incubated at RT for 90 min. Nonspecific binding was determined in the presence of 100 μM GTPγS and was always less than 0.2% of total binding.

Question: For COc1cccc(OC)c1-n1c(NS(=O)(=O)[C@H](C)Cc2ncc(F)cn2)nnc1-c1ccco1 (mixture of isomers), which EC50 is on record?
Answer: Its EC50 is 0.29 nM.

Question: With COc1cccc(OC)c1-n1c(NS(=O)(=O)[C@H]2C[C@@H](O)CN(c3cc(C#N)ccn3)C2)nnc1-c1ccc(C)o1 (single isomer, unassigned) as the compound, how does the EC50 read?
Answer: Its EC50 is 0.17 nM.
